# According to patent US20220107246A1, “NONCOVALENT TAGS AND RELATED METHODS FOR CYTOSOLIC DELIVERY OF MACROBIOMOLECULES” (University of Washington, priority 2019, published 2022):
# “Also recorded” adds a separate entry of the source.
# Experiments:
# [1] = system: peptidylprolyl isomerase B (PPIB) mRNA; test: siRNA delivery and real time RT PCR (PPIB mRNA knockdown in PC-3 cells); format: cell-based; settings: siRNA complexed with tag, real-time PCR
# Description: A small library of 14 chemicals that represent various lipophilicities while sharing a carboxylic acid group for easy conjugation with ethidium was screened. These hydrophobic compounds were chemically linked to ethidium via a hexacarbon (C6) linker. The resulting small-molecule tags were mixed with a model siRNA sequence against peptidylprolyl isomerase B (PPIB) and tested on a prostate tumor cell line, PC-3, for RNAi.
# PC-3 cells were seeded in 24-well plate at density of 5,000 cells per well. […] Total RNA was isolated from the cell monolayer using Trizol reagent (Invitrogen) according to the manufacturer's protocol. 200 nanograms of RNA was converted to cDNA using random hexamer primer and MultiScribe Reverse Transcriptase Reagent (Applied Biosystems, Inc., Branchburg, N.J.). 100 nanograms of cDNA was amplified by SensiFast SYBR kit (Bioline, Taunton, Mass.) on a Chromo4™ Real-Time system (Bio-Rad, Hercules, Calif.). The primers used for PPIB amplification were 5′-[…]-3′ (forward primer; SEQ ID NO:6) and 5′-[…]-3′ (reverse primer; SEQ ID NO:7). Primers for detection of 18s were 5′-[…]-3′ (forward primer; SEQ ID NO:8) and 5′-[…]-3′ (reverse primer; SEQ ID NO:9).
# siRNA [2] = test: Intercalation into siRNA monitored by fluorescence activation; format: binding; settings: for intercalation of tag into siRNA (fluorescence enhancement): compared to tag 5; for fluorescence activation upon intercalation into siRNA: compared with DNA (positive control)
# Description: To test this new concept of cytosolic delivery, a conjugation-free methodology was investigated that incorporated small chemical tags to transform siRNA sufficiently hydrophobic, membrane-permeant, and self-deliverable. […] For a proof of concept, a number of existing oligonucleotide intercalators were tested, due to their potential to non-covalently attach the lipophilic moiety to siRNA. Although DNA intercalating dyes are well-studied and broadly available, selection of dsRNA intercalators is limited. […] DNA intercalating dyes apply a stretching force thus may or may not work on siRNA. Eight DNA intercalating dyes (molecular structures shown in FIG. 7) were evaluated utilizing a very convenient feature of these dyes, fluorescence activation upon intercalation into oligonucleotides. […] Therefore, ethidium was used in the following studies.
# After 5-minute incubation, the mixture was diluted to 100 μL and the fluorescence was measured with the microplate reader. The fluorescence increment (J. B. Le Pecq, et al., DNA polyintercalating drugs: DNA binding of diacridine derivatives, Proc Natl Acad Sci USA 72(8) (1975) 2915-9; B. Gaugain, et al., DNA Bifunctional intercalators. 2. Fluorescence properties and DNA binding interaction of an ethidium homodimer and an acridine ethidium heterodimer, Biochemistry 17(24) (1978) 5078-88, each of which is incorporated herein by reference in its entirety), ΔIF, is the difference of fluorescence intensity of the tags in the presence or absence of siRNA.
# actin in HeLa cells = test: F-actin labeling in live cells using LifeAct-GFP; format: cell-based
# Description: Lastly, two applications that should have a major impact on biology and medicine, immunofluorescence in live cells, and delivery of therapeutic proteins inside cells were assessed for compatibility with the disclosed tag approach for cytosolic delivery. Immunofluorescence, one of the most common techniques in biological and medical research, is currently used to profile cell surface markers on live cells (e.g., many flow cytometry studies) missing all the key cell signaling nodes inside cells. Alternatively, immunofluorescence is currently used on fixed cells, missing the temporal dynamics of active cell signaling that determines cell fate, behavior, communications, and growth. […] Briefly, HeLa cells were incubated with cholesterol-tagged LifeAct-GFP or LifeAct-GFP alone and the cells were imaged. […] To confirm the labeling specificity, cells were pretreated with cytochalasin-D before incubating with LifeAct-Tag.
# HeLa cells were seeded onto glass-bottom dishes. After one-day of culturing, cells were incubated with fresh media containing tagged LifeAct-GFP for 4 h at 37° C., followed by washing and counterstaining Hoechst 33258. The cells were imaged on an Olympus fluorescence microscope equipped with a true-color CCD, Qcolor 5.
# siRNA [3] = test: Gel electrophoresis of siRNA with intercalators; settings: high degree of intercalation
# Description: FIGS. 2A-2H illustrate tag design and characterizations. (FIG. 2A) Intercalation of conventional DNA intercalators into siRNA monitored by fluorescence activation. Ethidium and acridinium show similar fluorescence activation in both DNA and RNA, unlike the others. (FIG. 2B) Gel electrophoresis of siRNA with acridinium and ethidium at low and high degree of intercalation. […] (FIG. 2C) Screening hydrophobic compounds (after linking with ethidium) for mRNA (PPIB) knockdown in PC-3 cells. The numbers represent the compounds illustrated in FIG. 2D. Steroids such as cholesterol and stigmasterol offer the highest RNAi efficiency. (FIG. 2D) Molecular structures of the 14 exemplary chemical tags tested in the current study. The hydrophobic compounds are linked to ethidium via a C6 spacer. (FIG. 2E) Dose response of gene knockdown using siRNA tagged with ethidium-cholesterol (left) in PC-3 cells. […]
# To test this new concept of cytosolic delivery, a conjugation-free methodology was investigated that incorporated small chemical tags to transform siRNA sufficiently hydrophobic, membrane-permeant, and self-deliverable. […] Eight DNA intercalating dyes (molecular structures shown in FIG. 7) were evaluated utilizing a very convenient feature of these dyes, fluorescence activation upon intercalation into oligonucleotides. […]
# HeLa cells = test: Cellular delivery of tagged proteins, confocal microscopy; format: cell-based; settings: for intracellular fluorescence pattern of cholesterol-tagged protein: protein tagged with CB-cholesterol tag
# Description: Purified Coomassie blue-cholesterol tag powder was reconstituted with ethanol/water (v/v: 4/1) to a concentration of 1.6 mM and stored at 4° C. as a stock. Before tagging, the concentration of all the protein solutions was diluted to 25 μM. […] The mixture was quickly mixed by pipetting. The mixture was incubated in a water bath (37° C.) for 8 min and sonicated in an ultrasonic water bath for 30 seconds. After another round of 8-min water bath incubation at 37° C., the protein was ready for delivery.
# (§1) Cells were seeded on glass-bottom dishes (poly-D-lysine treated, MatTek Corp.) one day before the experiments. The cell monolayer was washed once with serum-free RPMI 1640 media and treated with 2 mL of RPMI 1640 media containing the tagged protein at a final concentration of 1 μM for 2 h. In the end, the cells were counter-stained with Hoechst 33342 and Alexa Fluor® 594 labeled Wheat Germ Agglutinin (WGA-AF594), respectively. The cells were washed three times with RPMI 1640 and imaged on a Zeiss LSM 710 microscope.
# To study the delivery effect at low temperature (4° C.), cell monolayers were pre-equilibrated with cold media (RPMI 1640) for 10 minutes at 4° C. and then treated with the cold solution of tagged protein for 3 h. The cells were washed with cold media and imaged immediately.
# [4] = system: PC-3, MDA-MB-231, SK-BR-3, DU-145, KB, and HEK-293T; test: Cellular delivery of aprotinin-tag complex in additional cell types; format: cell-based; settings: protein-tag complex; independent of the cell lines
# Description: To further rule out the scenario that the tagged proteins initially enter cells via endocytosis followed by an efficient endosomal escape, the confocal microscopy experiment were performed again using the small protein, aprotinin, at 4° C., a temperature that blocks endocytic membrane trafficking. […] To evaluate the generality of this protein tagging technology, it was tested using […] additional cell types besides HeLa cells (i.e., PC-3, MDA-MB-231, SK-BR-3, DU-145, KB, and HEK-293T). Cells exposed to protein (aprotinin)-tag complex and then stained for protinin and WGA to show the cell boundary. […] Perhaps more importantly, protein transfection directly into the cytosol was also achieved in further experiments of primary cells including human adipose-derived stem cells, primary human dermal fibroblasts, and primary human umbilical vein endothelial cells (HUVEC) (not shown).
# as §1, with “The cells were washed three times with RPMI 1640 and imaged on a Zeiss LSM 710 microscope.” left out
molecule,measurement,setting,value
"3,8-bis(tert-butyloxycarbonylamino)-5-(6-L-argininylcarbonylamino-hexyl)-6-phenylphenanthridine [tag 4]","RNAi effect (PPIB mRNA knockdown), tag screening",[1],no or low effect
"3,8-bis(tert-butyloxycarbonylamino)-5-(6-L-histinylcarbonylamino-hexyl)-6-phenylphenanthridine [tag 3]","RNAi effect (PPIB mRNA knockdown), tag screening",[1],no or low effect
"3,8-bis(tert-butyloxycarbonylamino)-5-(6-L-leucinylcarbonylamino-hexyl)-6-phenylphenanthridine [tag 2]","RNAi effect (PPIB mRNA knockdown), tag screening",[1],no or low effect
"3,8-bis(tert-butyloxycarbonylamino)-5-(6-caprylcarbonylamino-hexyl)-6-phenylphenanthridine [tag 7]","RNAi effect (PPIB mRNA knockdown), tag screening",[1],no or low effect
"3,8-bis(tert-butyloxycarbonylamino)-5-(6-cerotylcarbonylamino-hexyl)-6-phenylphenanthridine [tag 9]","RNAi effect (PPIB mRNA knockdown), tag screening",[1],failed to lower the PPIB mRNA level
same,intercalation of tag into siRNA (fluorescence enhancement),siRNA [2],minor fluorescence enhancement; also recorded: failed to intercalate into siRNA
"3,8-bis(tert-butyloxycarbonylamino)-5-(6-chloroquinecarboylamino-hexyl)-6-phenylphenanthridine [tag 13]","RNAi effect (PPIB mRNA knockdown), tag screening",[1],no or low effect
"3,8-bis(tert-butyloxycarbonylamino)-5-(6-cholesterylcarbonylamino-hexyl)-6-phenylphenanthridine [tag 5]","RNAi effect (PPIB mRNA knockdown), tag screening",[1],significant RNAi effect
"3,8-bis(tert-butyloxycarbonylamino)-5-(6-pentadecylcarbonylamino-hexyl)-6-phenylphenanthridine [tag 8]","RNAi effect (PPIB mRNA knockdown), tag screening",[1],no or low effect
"3,8-bis(tert-butyloxycarbonylamino)-5-(6-stigmasterylcarbonylamino-hexyl)-6-phenylphenanthridine [tag 6]","RNAi effect (PPIB mRNA knockdown), tag screening",[1],significant RNAi effect
"3,8-bis(tert-butyloxycarbonylamino)-5-[6-(1,2-dipalmitin)-carboylamino-hexyl]-6-phenylphenanthridine [tag 14]","RNAi effect (PPIB mRNA knockdown), tag screening",[1],no RNAi effect
same,intercalation of tag into siRNA (fluorescence enhancement),siRNA [2],minor fluorescence enhancement; also recorded: failed to intercalate into siRNA
"C=C1[C@@H](C)[C@H]2[C@H](Cc3ccccc3)NC(=O)[C@]23[C@H](OC(C)=O)/C=C/[C@@](C)(O)C(=O)[C@@H](C)C/C=C/[C@H]3[C@@H]1O [cytochalasin-D, reference compound]",actin filament structure after pretreatment,actin in HeLa cells; cells pretreated before incubating with LifeAct-Tag,completely disrupted
"CC[n+]1c(-c2ccccc2)c2cc(N)ccc2c2ccc(N)cc21 [ethidium, reference compound]",unwinding of siRNA duplex,siRNA [3],does not
same,fluorescence activation upon intercalation into siRNA,siRNA [2],strong binding with siRNA
"Coomassie blue, dicholest carbamyl 3-(3-propyl dimethyl amino)propyl sulfonamide [cholesterol tag]",imaging quality of delivered LifeAct-GFP,actin in HeLa cells; same LifeAct-GFP concentration,significantly better contrast
acridinium [reference compound],unwinding of siRNA duplex,siRNA [3],unwound the siRNA double helix
same,fluorescence activation upon intercalation into siRNA,siRNA [2],strong binding with siRNA
aprotinin,intracellular fluorescence pattern of cholesterol-tagged protein,HeLa cells; HeLa cells,bright and homogeneous fluorescence intracellular distribution
same,intracellular fluorescence pattern without the cholesterol tag,"HeLa cells; HeLa cells, same condition, no tag",only a few punctate fluorescent spots
same,uptake by cells at 4° C.,HeLa cells; low tag/protein ratio,virtually confined to the cell membrane
same,uptake by cells at 4° C.,HeLa cells; optimal tag/aprotinin ratio,bright and homogeneous intracellular fluorescence
same,uptake by cells at 4° C.,HeLa cells; without the tag,negligible
same,cytosolic delivery in additional cell types,[4],Efficient cytosolic delivery
"lysozyme: protein, 15 kDa, fluorescently labeled cargo",intracellular fluorescence pattern of cholesterol-tagged protein,HeLa cells; HeLa cells,diffused distribution while having a few punctate bright spots
same,intracellular fluorescence distribution,HeLa cells; tag:protein molar ratio 1:1,only punctate intracellular fluorescence distribution
same,intracellular fluorescence distribution,HeLa cells; tag:protein molar ratio 3:1,only punctate intracellular fluorescence distribution
same,intracellular fluorescence distribution,HeLa cells; tag:protein molar ratio 6:1,diffused fluorescence signal started to appear
same,intracellular fluorescence distribution,HeLa cells; tag:protein molar ratio 8:1,significant direct membrane permeation
